Measured values from publication PMC7505981, “Preparation of a whole cell catalyst overexpressing acetohydroxyacid synthase of Thermotoga maritima and its application in the syntheses of α-hydroxyketones” (Scientific Reports, 2020).

Molecular target: T1, TmcAHAS (large catalytic subunit of acetohydroxyacid synthase of Thermotoga maritima) (Thermotoga maritima, UniProt Q9WZ18)
T1 construct: gene TM_0548; catalytic subunit alone, without regulatory subunit; gene from genomic DNA in pET28a (NdeI/BamHI), N-terminal His6 tag, E. coli Rosetta(DE3), Ni-NTA purified, about 68 kDa on SDS-PAGE; forward primer after NdeI site encodes MLLDEI
Assay: photometric creatine/alpha-naphthol assay of acetoin at […] nm, Michaelis-Menten fit
Type: biochemical
Conditions: 50 mM phosphate pH 8.0, 80 °C, 10 min, 10 μM FAD, 1 mM ThDP, 10 mM Mg2+; catalytic subunit alone; read-out: Km for pyruvate

T1 sequence (Q9WZ18 entry or part of it): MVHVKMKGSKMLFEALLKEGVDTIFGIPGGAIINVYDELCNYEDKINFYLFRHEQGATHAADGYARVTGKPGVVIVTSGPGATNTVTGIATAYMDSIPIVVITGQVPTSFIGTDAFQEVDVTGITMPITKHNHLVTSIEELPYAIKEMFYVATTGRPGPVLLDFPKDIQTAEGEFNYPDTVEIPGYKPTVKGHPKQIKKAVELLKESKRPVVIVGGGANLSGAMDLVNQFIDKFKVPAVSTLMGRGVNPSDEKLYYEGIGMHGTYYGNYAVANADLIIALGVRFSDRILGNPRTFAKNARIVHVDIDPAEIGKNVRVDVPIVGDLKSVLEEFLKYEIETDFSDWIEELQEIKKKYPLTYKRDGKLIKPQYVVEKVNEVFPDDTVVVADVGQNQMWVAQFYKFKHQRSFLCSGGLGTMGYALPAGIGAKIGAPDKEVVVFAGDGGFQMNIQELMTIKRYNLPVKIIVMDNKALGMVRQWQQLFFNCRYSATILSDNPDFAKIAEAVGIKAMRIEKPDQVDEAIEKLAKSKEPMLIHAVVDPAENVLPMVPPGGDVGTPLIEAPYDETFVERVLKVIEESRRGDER

- Km: 19.1 ± 1.6 mM
Compound: CC(=O)C(=O)O [pyruvate]
